Assay results: the NIST ThermoML archive (doi:10.1016/j.jct.2016.06.020)
Numbers after ± are expanded uncertainties.

How the values were obtained:
[1] = Crystal; DTA
[2] = Molar enthalpy of transition or fusion; settings: Crystal; DSC

Question: Which results are given for `CCN1C(=O)N(C)[C@@H]2[C@H]1N(C)C(=O)N2CC` (racemic)?
Answer: Normal melting temperature [1]: 118.6 ± 0.6 °C; Molar enthalpy of transition or fusion [2]: 4.97 ± 0.167 kcal/mol
